Assay results published in the NIST ThermoML archive (doi:10.1021/je900404r).
Numbers after ± are expanded uncertainties.

What was measured:
[1] = xn = mol fraction of the nth substance listed; conditions: 101 kPa, Liquid, Vibrating tube method
[2] = 101 kPa, Liquid, Vibrating tube method

ClC(Cl)Cl [trichloromethane] + O=C1CCCCC1
mass density [kg/m3], [1]
Conditions | x1 = 0.1198 | x1 = 0.2362 | x1 = 0.305 | x1 = 0.4235 | x1 = 0.5103 | x1 = 0.6047 | x1 = 0.6953 | x1 = 0.8109 | x1 = 0.9089 | x1 = 1
288.15 K | 1004.15 ± 0.44 | 1058.19 ± 0.45 | 1091.64 ± 0.46 | 1151.88 ± 0.46 | 1198.22 ± 0.47 | 1250.45 ± 0.48 | 1303.06 ± 0.49 | 1372.1 ± 0.51 | 1433.35 ± 0.52 | 1491.86 ± 0.46
298.15 K | 994.58 ± 0.44 | 1047.93 ± 0.45 | 1080.94 ± 0.45 | 1140.29 ± 0.46 | 1185.89 ± 0.47 | 1237.16 ± 0.48 | 1288.8 ± 0.49 | 1356.3 ± 0.5 | 1416.12 ± 0.51 | 1473.16 ± 0.46
308.15 K | 984.97 ± 0.44 | 1037.61 ± 0.45 | 1070.16 ± 0.45 | 1128.62 ± 0.46 | 1173.48 ± 0.47 | 1223.78 ± 0.47 | 1274.42 ± 0.48 | 1340.36 ± 0.5 | 1398.68 ± 0.51 | 1454.07 ± 0.46
318.15 K | 975.32 ± 0.44 | 1027.25 ± 0.44 | 1059.32 ± 0.45 | 1116.88 ± 0.46 | 1160.97 ± 0.46 | 1210.28 ± 0.47 | 1259.9 ± 0.48 | 1324.23 ± 0.49 | 1381.01 ± 0.5 | 1434.72 ± 0.46

CC(Cl)(Cl)Cl [1,1,1-trichloroethane]
[2]
Conditions | mass density [kg/m3]
288.15 K | 1344.95 ± 0.44
298.15 K | 1328.27 ± 0.44
308.15 K | 1311.45 ± 0.43
318.15 K | 1294.47 ± 0.43

ClC(Cl)C(Cl)Cl [1,1,2,2-tetrachloroethane]
[2]
Conditions | mass density [kg/m3]
288.15 K | 1604.75 ± 0.48
298.15 K | 1589.18 ± 0.48
308.15 K | 1573.57 ± 0.48
318.15 K | 1557.94 ± 0.47

O=C1CCCCC1 [cyclohexanone]
[2]
Conditions | mass density [kg/m3]
288.15 K | 951.69 ± 0.41
298.15 K | 942.76 ± 0.41
308.15 K | 933.8 ± 0.41
318.15 K | 924.82 ± 0.41

O=C1CCCCC1 [cyclohexanone] + ClC(Cl)C(Cl)Cl
[1], x2 = 0
Conditions | mass density [kg/m3]
288.15 K | 951.69 ± 0.41
298.15 K | 942.76 ± 0.41
308.15 K | 933.8 ± 0.41
318.15 K | 924.82 ± 0.41

ClCCCCl [1,3-dichloropropane]
[2]
Conditions | mass density [kg/m3]
288.15 K | 1191.93 ± 0.42
298.15 K | 1179.58 ± 0.42
308.15 K | 1167.16 ± 0.42
318.15 K | 1154.67 ± 0.41

ClCCCCCl [1,4-dichlorobutane] + O=C1CCCCC1
mass density [kg/m3], [1]
Conditions | x1 = 0.1063 | x1 = 0.1969 | x1 = 0.2901 | x1 = 0.3808 | x1 = 0.4803 | x1 = 0.5814 | x1 = 0.6763 | x1 = 0.7751 | x1 = 0.8849 | x1 = 1
288.15 K | 973.11 ± 0.41 | 991.09 ± 0.41 | 1009.39 ± 0.41 | 1027.04 ± 0.41 | 1046.24 ± 0.41 | 1065.55 ± 0.41 | 1083.46 ± 0.41 | 1101.96 ± 0.42 | 1122.33 ± 0.42 | 1143.49 ± 0.41
298.15 K | 964 ± 0.41 | 981.82 ± 0.41 | 999.94 ± 0.41 | 1017.42 ± 0.41 | 1036.41 ± 0.41 | 1055.52 ± 0.41 | 1073.23 ± 0.41 | 1091.52 ± 0.42 | 1111.66 ± 0.42 | 1132.57 ± 0.41
308.15 K | 954.86 ± 0.41 | 972.51 ± 0.41 | 990.46 ± 0.41 | 1007.76 ± 0.41 | 1026.55 ± 0.41 | 1045.46 ± 0.41 | 1062.97 ± 0.41 | 1081.05 ± 0.41 | 1100.96 ± 0.42 | 1121.61 ± 0.41
318.15 K | 945.69 ± 0.41 | 963.17 ± 0.41 | 980.95 ± 0.41 | 998.07 ± 0.41 | 1016.66 ± 0.41 | 1035.37 ± 0.41 | 1052.68 ± 0.41 | 1070.54 ± 0.41 | 1090.21 ± 0.42 | 1110.61 ± 0.41

O=C1CCCCC1 [cyclohexanone] + ClCCCl
[1], x2 = 0
Conditions | mass density [kg/m3]
288.15 K | 951.69 ± 0.41
298.15 K | 942.76 ± 0.41
308.15 K | 933.8 ± 0.41
318.15 K | 924.82 ± 0.41

CCCCCl [1-chlorobutane]
[2]
Conditions | mass density [kg/m3]
288.15 K | 892.1 ± 0.41
298.15 K | 881.05 ± 0.41
308.15 K | 869.86 ± 0.41
318.15 K | 858.52 ± 0.41

O=C1CCCCC1 [cyclohexanone] + ClCCCCCl
[1], x2 = 0
Conditions | mass density [kg/m3]
288.15 K | 951.69 ± 0.41
298.15 K | 942.76 ± 0.41
308.15 K | 933.8 ± 0.41
318.15 K | 924.82 ± 0.41

ClC(Cl)Cl [trichloromethane]
[2]
Conditions | mass density [kg/m3]
288.15 K | 1491.86 ± 0.46
298.15 K | 1473.16 ± 0.46
308.15 K | 1454.07 ± 0.46
318.15 K | 1434.72 ± 0.46

ClCCCl [1,2-dichloroethane] + O=C1CCCCC1
mass density [kg/m3], [1]
Conditions | x1 = 0.1142 | x1 = 0.2318 | x1 = 0.3197 | x1 = 0.4227 | x1 = 0.519 | x1 = 0.6155 | x1 = 0.7061 | x1 = 0.8134 | x1 = 0.9145 | x1 = 1
288.15 K | 978.81 ± 0.42 | 1008.61 ± 0.42 | 1032.1 ± 0.42 | 1061.02 ± 0.42 | 1089.5 ± 0.43 | 1119.7 ± 0.43 | 1149.67 ± 0.44 | 1187.43 ± 0.44 | 1225.5 ± 0.45 | 1260.01 ± 0.43
298.15 K | 969.5 ± 0.42 | 998.88 ± 0.42 | 1022 ± 0.42 | 1050.47 ± 0.42 | 1078.46 ± 0.43 | 1108.12 ± 0.43 | 1137.52 ± 0.43 | 1174.53 ± 0.44 | 1211.76 ± 0.45 | 1245.48 ± 0.42
308.15 K | 960.16 ± 0.42 | 989.1 ± 0.42 | 1011.86 ± 0.42 | 1039.86 ± 0.42 | 1067.36 ± 0.42 | 1096.48 ± 0.43 | 1125.3 ± 0.43 | 1161.53 ± 0.44 | 1197.92 ± 0.44 | 1230.83 ± 0.42
318.15 K | 950.78 ± 0.42 | 979.28 ± 0.42 | 1001.67 ± 0.42 | 1029.19 ± 0.42 | 1056.19 ± 0.42 | 1084.75 ± 0.43 | 1112.98 ± 0.43 | 1148.42 ± 0.44 | 1183.96 ± 0.44 | 1216.04 ± 0.42

O=C1CCCCC1 [cyclohexanone] + ClC(Cl)Cl
[1], x2 = 0
Conditions | mass density [kg/m3]
288.15 K | 951.69 ± 0.41
298.15 K | 942.76 ± 0.41
308.15 K | 933.8 ± 0.41
318.15 K | 924.82 ± 0.41

ClCCCl [1,2-dichloroethane]
[2]
Conditions | mass density [kg/m3]
288.15 K | 1260.01 ± 0.43
298.15 K | 1245.48 ± 0.42
308.15 K | 1230.83 ± 0.42
318.15 K | 1216.04 ± 0.42

O=C1CCCCC1 [cyclohexanone] + ClCCCCl
[1], x2 = 0
Conditions | mass density [kg/m3]
288.15 K | 951.69 ± 0.41
298.15 K | 942.76 ± 0.41
308.15 K | 933.8 ± 0.41
318.15 K | 924.82 ± 0.41

O=C1CCCCC1 [cyclohexanone] + CC(Cl)(Cl)Cl
[1], x2 = 0
Conditions | mass density [kg/m3]
288.15 K | 951.69 ± 0.41
298.15 K | 942.76 ± 0.41
308.15 K | 933.8 ± 0.41
318.15 K | 924.82 ± 0.41

O=C1CCCCC1 [cyclohexanone] + CCCCCl
[1], x2 = 0
Conditions | mass density [kg/m3]
288.15 K | 951.69 ± 0.41
298.15 K | 942.76 ± 0.41
308.15 K | 933.8 ± 0.41
318.15 K | 924.82 ± 0.41

ClCCCCCl [1,4-dichlorobutane]
[2]
Conditions | mass density [kg/m3]
288.15 K | 1143.49 ± 0.41
298.15 K | 1132.57 ± 0.41
308.15 K | 1121.61 ± 0.41
318.15 K | 1110.61 ± 0.41
